Each structure is given as a SMILES string.

The nature of data set [1]: Photothermal stability, repeated 808 nm irradiation and cooling. The format is physicochemical. The following applies: sample No. 3, 20 μM, 808 nm laser 9 minutes, natural cooling, 5 times. How it is done:
We selected sample No. 3 to test the photothermal stability experiment. As shown in the right figure of FIG. 8, sample No. 3 was irradiated with 808 nm laser for 9 minutes and then the temperature increased from room temperature 30° C. to 62° C., and then allowed to naturally cool down to room temperature, and irradiated with 808 nm laser again for 9 minutes, then naturally cooled down, and repeated for 5 times. […] After 9 minutes of irradiation, the temperature was raised by […], and then returned to room temperature.

The nature of data set [2]: Photodynamic effect test with carboxy-H2DCFDA. Particulars: 10 μM in water with 25 μM carboxy-H2DCFDA, 808 nm laser 10 minutes. How it is done:
The control group only added carboxy-H2DCFDA compound. Irradiated with 808 nm laser for 10 minutes, and the sample was lowered to room temperature, and its fluorescence emission spectrum (Ex=495 nm, Em=530 nm) was tested. […] It has been verified that other compounds of the present invention have no similar photodynamic effect.

Another data set deals with 4T1 cells. As to the kind of experiment: Photoacoustic imaging in subcutaneous metastasis model mice. The following applies: 200 μL (300 μmoL) tail vein, multispectral photoacoustic tomography. In kind it is in vivo, nude mice. How it is done: The left side of 6-week-old female nude mice was injected subcutaneously with […] 4T1 cells to grow the tumor volume to 60 mm^3.
200 μL II-1 (300 μmoL) was injected into the mice of the experimental group through the tail vein. Monitored with multispectral photoacoustic tomography at different times. […] With the increase of time, until 24 hours, there was a photoacoustic signal at the tumor site.

Turning to `CCN1C(=CC=C2CCCC(C=CC3=C(C#N)C(=C(C#N)C#N)OC3(C)C)=C2Cl)C(C)(C)c2ccccc21` [II-1], in data set [1], the “temperature raised by, every time in 5 repeated irradiations” value is 25 °C and the “temperature reached every time in 5 repeated irradiations” value is “at least 55 °C”. In addition, the “production of reactive oxygen radicals (photodynamic effect)” value in data set [2] is “does not produce reactive oxygen radicals (ROS)”. For the same compound, in the data set with 4T1 cells, the “time at which a clear photoacoustic signal was found at the tumor site” value amounted to 4 h and the “time until which there was a photoacoustic signal at the tumor site” value is 24 h.
